Experimental data reported in US5077204A, “Yeast endopeptidase for basic amino-acid site cleavage, preparation and use” (Chiron Corporation, priority 1988, dated 1991).
Like-named read-outs stand apart in the source and are kept apart here. Peptide text beside a SMILES is read from it. * marks the point of attachment. AMC = Cc1cc(=O)oc2cc(N*)ccc12; Boc = CC(C)(C)OC(=O)*

Experiments:
Type in all cases: biochemical, S. cerevisiae
[1] = target: T1, KEX2 endopeptidase (kex2[YEp24-pJ2B] membranes) (Saccharomyces cerevisiae, UniProt P13134); assay: Endopeptidase activity in membranes from kex2 cells carrying multicopy plasmid pJ2B (over-produced specific endopeptidase); conditions: for Relative Ratio: kex2[YEp24-pJ2B] relative to kex2[YEp24] = [1.0]; for Rate of hydrolysis, membranes from kex2 cells carrying pJ2B versus membranes from kex2 cells carrying YEp24 / Rate of hydrolysis (in words): membrane fractions; for Rate of hydrolysis, membranes from kex2 cells carrying pJ2B versus membranes from kex2 cells carrying YEp24: depending on the experiment; for Rate of hydrolysis (in words): endopeptidase substrates containing single arginine residues
T1 construct: not only includes the KEX2 gene, but also the necessary transcriptional and translational regulatory signals for expression in yeast; expressed in transfected cells; host or cells: S. cerevisiae XBH16-15A (MATalpha kex2-1) carrying YEp24-pJ2B
T1 sequence (P13134 114-814): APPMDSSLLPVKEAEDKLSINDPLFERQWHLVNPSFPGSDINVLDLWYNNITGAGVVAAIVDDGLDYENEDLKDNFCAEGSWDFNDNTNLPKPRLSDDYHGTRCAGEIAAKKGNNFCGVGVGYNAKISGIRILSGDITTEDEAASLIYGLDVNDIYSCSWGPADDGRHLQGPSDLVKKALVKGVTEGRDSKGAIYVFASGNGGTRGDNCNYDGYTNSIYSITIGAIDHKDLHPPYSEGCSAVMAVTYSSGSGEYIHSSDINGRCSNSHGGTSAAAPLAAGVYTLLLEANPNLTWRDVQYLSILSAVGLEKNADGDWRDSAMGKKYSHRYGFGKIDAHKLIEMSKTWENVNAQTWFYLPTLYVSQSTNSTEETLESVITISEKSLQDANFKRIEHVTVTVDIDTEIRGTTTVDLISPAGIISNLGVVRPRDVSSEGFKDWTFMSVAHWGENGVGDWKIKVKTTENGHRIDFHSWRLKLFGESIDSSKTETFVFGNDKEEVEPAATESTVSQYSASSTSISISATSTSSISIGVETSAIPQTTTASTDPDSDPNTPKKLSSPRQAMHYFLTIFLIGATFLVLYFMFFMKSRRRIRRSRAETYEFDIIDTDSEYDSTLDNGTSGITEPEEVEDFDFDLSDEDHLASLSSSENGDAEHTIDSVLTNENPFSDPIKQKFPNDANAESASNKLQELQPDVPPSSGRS
Protocol: (§1) Permeabilization of whole yeast cells with the non-ionic detergent Brij 58, preparation of crude membrane fractions, and measurement of protein concentration were conducted by the methods described previously (Julius et al., 1983, supra), incorporated herein by reference. To measure peptidase activity, samples of permeabilized cells or membrane material were added to a reaction mixture containing 0.1-0.5 mM fluorogenic peptide substrate (added from a 20 mM stock dissolved in DMSO) and 200 mM HEPES-Tris (pH 7.0), in a final volume of 0.4 ml. Following incubation for 30 min at 37° C., whole cells were removed by centrifugation in a microfuge (Eppendorf) and membrane material was removed by Ba(OH)2 -ZnSO4 precipitation. The amount of fluorescence formed in the supernatant solution was determined in a fluorescence spectrophotometer (Perkin-Elmer, Model MPF-44B), set either at an excitation wavelength of 335 nm and an emission wavelength of 410 nm (for measurement of β-naphthylamine) or at an excitation wavelength of 380 nm and an emission wavelength of 460 nm (for measurement of 7-amino-4-methyl-coumarin, AMC). To determine the number of moles of substrate hydrolyzed, the fluorescence yield of samples was compared to a standard curve prepared with known concentrations of authentic AMC dissolved in the same buffer.
(§2) Cells of strain XBH1615A that had been transformed with the plasmids
(§3) indicated, or that contained pJ2B in integrated form, were grown in SCUra
(§4) and membranes were prepared as described in the Experimental.
(§5) Endopeptidase activity was assayed as described in the Experimental. All
(§6) substrates tested were present at 0.1 mM.
(§7) Endopeptidase activity was assayed using Boc--GlnArgArg--MCA as the
(§8) substrate, as outlined in the Experimental. All inhibitors were added fro
a 0.1 M stock dissolved in dimethyl sulfoxide.

[2] = target: T2, KEX2 endopeptidase (kex2::pJ2B membranes) (Saccharomyces cerevisiae, UniProt P13134); assay: Endopeptidase activity in membranes from kex2 cells containing pJ2B in integrated form; conditions: for Relative Ratio: kex2::pJ2B relative to kex2[YEp24] = [1.0]
T2 construct: not only includes the KEX2 gene, but also the necessary transcriptional and translational regulatory signals for expression in yeast; expressed in transfected cells; host or cells: S. cerevisiae XBH16-15A (MATalpha kex2-1) containing pJ2B in integrated form; crude membranes
Protocol: as §1, §2, §3, §4, §5, §6, §7, §8
(§9) a 0.1 M stock dissolved in dimethyl sulfoxide. All values given were
(§10) corrected for the slight effects of addition of this solvent alone.

[3] = test system: background activity in membranes of kex2[YEp24] cells; assay: Endopeptidase activity in membranes from kex2 cells transformed with the vector YEp24 alone (background activity)
Protocol: as §1, §2, §3, §4, §5, §6, §7, §8, §9, §10

[4] = kex2 cells transformed with plasmid pJ2B, comparisons are to the background activity
[5] = strain kex2[YEp24-pJ2B], substrate 0.1 mM, membranes
[6] = strain kex2::pJ2B, substrate 0.1 mM, membranes
[7] = strain kex2[YEp24], substrate 0.1 mM, membranes
[8] = kex2[YEp24-pJ2B], inhibitor 1 mM, substrate Boc-GlnArgArg-MCA
[9] = kex2[YEp24-pJ2B], inhibitor 5 mM, substrate Boc-GlnArgArg-MCA
[10] = kex2[YEp24], inhibitor 1 mM, substrate Boc-GlnArgArg-MCA
[11] = kex2[YEp24], inhibitor 5 mM, substrate Boc-GlnArgArg-MCA

Compound	Susceptibility of the specific KEX2 endopeptidase to inhibition or inactivation [1, 4]	Relative Ratio ([1]; substrate 0.1 mM)	Specific Activity [1, 5]	Relative Ratio ([2]; substrate 0.1 mM)	Specific Activity [2, 6]	Specific Activity [3, 7]	further results
NC=O [formamide]	much less sensitive to inactivation	–	–	–	–	–	–
Cc1cc(=O)oc2cc(NC(=O)[C@H](CCCNC(=N)N)NC(=O)[C@H](CO)NC(=O)[C@H](Cc3ccccc3)NC(=O)OC(C)(C)C)ccc12 [Boc--PheSerArg--MCA, Boc-PheSerArg-MCA] (Boc-Phe-Ser-Arg-{AMC})	–	51.7	31.0 pmoles AMC formed/μg protein 10	6.3	3.8 pmoles AMC formed/μg protein 10	0.6 pmoles AMC formed/μg protein 10	Rate of hydrolysis relative to Boc-GlnArgArg-MCA, times more slowly ([1]; membrane fractions of kex2 cells carrying pJ2B): about three times more slowly
NC(=O)CI [iodoacetamide]	more susceptible to inhibition	–	–	–	–	–	–
Cc1cc(=O)oc2cc(NC(=O)[C@@H](N)CC(C)C)ccc12 [Leu--MCA, Leu-MCA]	–	2.1	69.8 pmoles AMC formed/μg protein 10	1.1	37.9 pmoles AMC formed/μg protein 10	33.7 pmoles AMC formed/μg protein 10	Rate of hydrolysis, membranes from kex2 cells carrying pJ2B versus membranes from kex2 cells carrying YEp24 [1]: no significant increase
CC[C@H](C)[C@H](NC(=O)OC(C)(C)C)C(=O)N[C@@H](CCC(=O)O)C(=O)NCC(=O)N[C@@H](CCCNC(=N)N)C(=O)Nc1ccc2c(C)cc(=O)oc2c1 [Boc--IleGluGlyArg--MCA, Boc-IleGluGlyArg-MCA] (Boc-IEGR-{AMC})	–	19.3	5.8 pmoles AMC formed/μg protein 10	3.0	0.9 pmoles AMC formed/μg protein 10	0.3 pmoles AMC formed/μg protein 10	Rate of hydrolysis (in words) [1]: negligible rates
Cc1cc(=O)oc2cc(NC(=O)[C@H](CCCNC(=N)N)NC(=O)c3ccccc3)ccc12 [Bz--Arg--MCA, Bz-Arg-MCA]	–	6.0	0.6 pmoles AMC formed/μg protein 10	1.0	0.1 pmoles AMC formed/μg protein 10	0.1 pmoles AMC formed/μg protein 10	Rate of hydrolysis (in words) [1]: negligible rates
O=C(O)CI [iodoacetic acid]	–	–	–	–	–	–	Susceptibility of the specific KEX2 endopeptidase to inhibition or inactivation [1]: more susceptible to inhibition
Cc1cc(=O)oc2cc(NC(=O)[C@@H](N)CCCNC(=N)N)ccc12 [Arg--MCA, Arg-MCA]	–	2.1	14.0 pmoles AMC formed/μg protein 10	1.2	8.0 pmoles AMC formed/μg protein 10	6.7 pmoles AMC formed/μg protein 10	Rate of hydrolysis, membranes from kex2 cells carrying pJ2B versus membranes from kex2 cells carrying YEp24 [1]: no significant increase
Cc1ccc(S(=O)(=O)NC(Cc2ccccc2)C(=O)CCl)cc1 (stereo not shown) [TPCK, tosyl-phenylalanine-chloromethylketone]	completely resistant	–	–	–	–	–	Specific Activity [1, 8]: 105.9 pmoles/μg/10 min; inhibition at 1000 µM [1, 8]: 2%; Specific Activity [1, 9]: 109.2 pmoles/μg/10 min; inhibition at 5000 µM [1, 9]: 0%; inhibition at 1000 µM [2]: 18%; inhibition at 5000 µM [2]: 13%; Specific Activity ([2]; kex2::pJ2B, inhibitor 1 mM, substrate Boc-GlnArgArg-MCA): 14.3 pmoles/μg/10 min; Specific Activity ([2]; kex2::pJ2B, inhibitor 5 mM, substrate Boc-GlnArgArg-MCA): 15.2 pmoles/μg/10 min; Inhibition [3, 10]: 57%; Specific Activity [3, 10]: 2.2 pmoles/μg/10 min; Inhibition [3, 11]: 73%; Specific Activity [3, 11]: 1.4 pmoles/μg/10 min; Susceptibility of the background activity to inhibition ([3]; kex2 cells transformed with YEp24 alone): sensitive to inhibition
C[S+](C)[O-] [dimethyl sulfoxide]	much less sensitive to inactivation	–	–	–	–	–	–
CO [methanol]	–	–	–	–	–	–	Susceptibility of the specific KEX2 endopeptidase to inhibition or inactivation [1]: much less sensitive to inactivation
